Measured values reported in patent publication US20250082610A1, “COMPOSITION, METHOD FOR MICROORGANISM GROWTH SUPPRESSION IN COMPOSITION FOR ORAL USE, AND AGENT FOR POTENTIATION OF MICROORGANISM-GROWTH-SUPPRESSING EFFECT OF QUERCETIN OR GLYCOSIDE THEREOF” (SUNTORY HOLDINGS LIMITED, priority 2022, published 2025).

Tests used:
[1] = system: Escherichia coli NBRC 3972; test: Sterilizing (microorganism growth inhibiting) effect, viable bacterial count; format: cell-based; conditions: one hour after inoculation, room temperature, phosphate-buffered saline, vs control; FIG. 1, result in words
Description: Escherichia coli (Escherichia coli NBRC 3972) was used as a test bacterium. Escherichia coli was inoculated onto a standard agar medium and cultured at 30° C. to 35° C. for 24 hours. After culturing, the bacterial count was adjusted to […] using saline, whereby a test bacterial solution was obtained. Phosphate-buffered saline and ergothioneine were mixed to prepare a test sample 1 (ergothioneine concentration: 100 ppm (0.01 wt %)). Phosphate-buffered saline and isoquercitrin were mixed to prepare a test sample 2 (isoquercitrin concentration: 100 ppm (0.01 wt %)). Phosphate-buffered saline, ergothioneine, and isoquercitrin were mixed to prepare a test sample 3 (ergothioneine concentration: 2.5 ppm (0.00025 wt %), isoquercitrin concentration: 100 ppm (0.01 wt %)). Phosphate-buffered saline, ergothioneine, and isoquercitrin were mixed to prepare a test sample 4 (ergothioneine concentration: 100 ppm (0.01 wt %), isoquercitrin concentration: 100 ppm (0.01 wt %)). Phosphate-buffered saline was used as control. A test sample (5 mL) was inoculated with a 0.05 mL test bacterial solution and left standing at room temperature. […] After culturing, the number of colonies formed was counted, and the viable bacterial count was calculated (n=3). The sterilizing effect (%) was determined from the viable bacterial count (average of n=3) using the following formula. […]

[2] = system: human β-defensin-1 (hBD-1); conditions: human immortalized keratinocyte cells (HaCaT cells); Patent Literature 1; cited from earlier work
[3] = system: human β-defensin-3 (hBD-3); conditions: human immortalized keratinocyte cells (HaCaT cells); Patent Literature 1; cited from earlier work
Escherichia coli = conditions: Non-Patent Literature 1; cited from earlier work
Staphylococcus aureus = conditions: Non-Patent Literature 1; cited from earlier work

C[N+](C)(C)[C@@H](Cc1c[nH]c(=S)[nH]1)C(=O)[O-] [L-ergothioneine]
Sterilizing effect on Escherichia coli [1]: no sterilizing effect
expression level of mRNA in hBD-1 [2]: increased
expression level of mRNA in hBD-3 [3]: increased

O=c1c(O)c(-c2ccc(O)c(O)c2)oc2cc(O)cc(O)c12 [quercetin]
inhibition of growth of Escherichia coli (Escherichia coli): inhibition of growth
inhibition of growth of Staphylococcus aureus (Staphylococcus aureus): inhibition of growth
